The target of assay [1] is SARS-CoV-2 Papain-like (PLpro) protease (Severe acute respiratory syndrome coronavirus 2, UniProt P0DTD1). Nature of the assay: SARS-CoV-2 Papain-like (PLpro) protease biochemical enzyme inhibition assay (ubiquitin-fluorophore substrate, Ub-R110). To be noted: Ub-R110 substrate; run in duplicate; read-out: PLpro IC50.
A further assay concerns SARS-CoV-2 replicon. Description: microbe, parasite or virus in culture. Type of assay: cell-based. The settings on record: Severe acute respiratory syndrome coronavirus 2, Huh-7.

Broadly, the IC50 is the concentration needed to halve the response being measured. As a reminder, the EC50 is the concentration giving half of the maximal effect. A lower EC50 goes with a more potent agent. Regarding `O=C(NCC#Cc1ncc(F)cc1F)C(=O)NCc1ccccc1C(=O)NC1(c2ccc3ccccc3c2)CC1` [Example 188], in assay [1], the IC50 was < 100 nM. For the same molecule, in the assay on SARS-CoV-2 replicon, the EC50 is < 1000 nM.
For `O=C(NCC#Cc1ccc(C(F)(F)F)cn1)C(=O)NCc1ccccc1C(=O)NC1(c2ccc3ccccc3c2)CC1` [Example 189], the IC50 in assay [1] is < 100 nM. Moreover, the EC50 in the assay with SARS-CoV-2 replicon was < 1000 nM.
Turning to `N#Cc1ccc(C#CCNC(=O)C(=O)NCc2ccccc2C(=O)NC2(c3ccc4ccccc4c3)CC2)nc1` [Example 190], the IC50 in assay [1] is < 100 nM. In addition, the concentration giving a half-maximal response (EC50) with SARS-CoV-2 replicon was < 1000 nM.
For `O=C(NCC#Cc1ncccc1C(F)(F)F)C(=O)NCc1ccccc1C(=O)NC1(c2ccc3ccccc3c2)CC1` [Example 191] the same measures were < 100 nM and < 1000 nM.
For `O=C(NCC#Cc1ccc(F)cn1)C(=O)NCc1ccccc1C(=O)NC1(c2ccc3ccccc3c2)CC1` [Example 192] the same measures were < 100 nM and < 1000 nM.
On to `N#Cc1cccc(C#CCNC(=O)C(=O)NCc2ccccc2C(=O)NC2(c3ccc4ccccc4c3)CC2)n1` [Example 193], for which the IC50 in assay [1] was < 100 nM. Further, in the assay with SARS-CoV-2 replicon, the EC50 is < 1000 nM.
In the case of `N#Cc1nc(C#CCNC(=O)C(=O)NCc2ccccc2C(=O)NC2(c3ccc4ccccc4c3)CC2)ccc1Cl` [Example 194], in assay [1], the IC50 is < 100 nM. The EC50 in the assay on SARS-CoV-2 replicon was < 1000 nM.
For the molecule `COc1nccnc1C#CCNC(=O)C(=O)NCc1ccccc1C(=O)NC1(c2ccc3ccccc3c2)CC1` [Example 195], the IC50 in assay [1] was < 100 nM. Also, in the assay on SARS-CoV-2 replicon, the EC50 is < 1000 nM.
For `O=C(NCC#Cc1cccc(F)n1)C(=O)NCc1ccccc1C(=O)NC1(c2ccc3ccccc3c2)CC1` [Example 196] the same measures were < 100 nM and < 1000 nM.
With `Cn1ccnc1C#CCNC(=O)C(=O)NCc1ccccc1C(=O)NC1(c2ccc3ccccc3c2)CC1` [Example 197], the IC50 in assay [1] is < 100 nM. In addition, the EC50 with SARS-CoV-2 replicon was < 1000 nM.
For `COc1cnc(C#CCNC(=O)C(=O)NCc2ccccc2C(=O)NC2(c3ccc4ccccc4c3)CC2)cn1` [Example 198] the same measures were < 100 nM and < 1000 nM.
On the same counts, the results for `O=C(NCC#Cc1ccc(Cl)nn1)C(=O)NCc1ccccc1C(=O)NC1(c2ccc3ccccc3c2)CC1` [Example 199] are < 100 nM and < 1000 nM.
On the same counts, the results for `CCOc1cccnc1C#CCNC(=O)C(=O)NCc1ccccc1C(=O)NC1(c2ccc3ccccc3c2)CC1` [Example 200] are < 100 nM and < 1000 nM.
As for `O=C(NCC#Cc1ncccc1OC(F)(F)F)C(=O)NCc1ccccc1C(=O)NC1(c2ccc3ccccc3c2)CC1` [Example 201], the IC50 in assay [1] is < 100 nM. In the assay with SARS-CoV-2 replicon, the EC50 was < 1000 nM.
For `C[C@@H](C#Cc1ccc(C#N)cc1OC(F)(F)F)NC(=O)C(=O)NCc1ccccc1C(=O)NC1(c2ccc3nn(C)cc3c2)CC1` [Example 206] the same measures were < 100 nM and < 1000 nM.
Take `C[C@@H](C#Cc1ncccc1CC#N)NC(=O)C(=O)NCc1ccccc1C(=O)NC1(c2ccc3nn(C)cc3c2)CC1` [Example 209]: the IC50 in assay [1] was < 100 nM. Further, the EC50 with SARS-CoV-2 replicon is < 1000 nM.
As to `Cn1cc2cc(C3(NC(=O)c4ccccc4CNC(=O)C(=O)NCC#Cc4ncccc4OCC(F)F)CC3)ccc2n1` [Example 211], the IC50 in assay [1] was < 100 nM. The 50% effective concentration (EC50) in the assay on SARS-CoV-2 replicon is < 1000 nM.
As for `C[C@@H](C#Cc1ncccc1OCC(F)F)NC(=O)C(=O)NCc1ccccc1C(=O)NC1(c2ccc3nn(C)cc3c2)CC1` [Example 212], in assay [1], the IC50 lay in the range of 100 to 1000 nM. The EC50 with SARS-CoV-2 replicon fell in the range of 1000 to 10000 nM.
On the same counts, the results for `CC[C@@H](C#Cc1ncc(F)cn1)NC(=O)C(=O)NCc1ccccc1C(=O)NC1(c2ccc3nn(C)cc3c2)CC1` [Example 213] are < 100 nM and < 1000 nM.
On the same counts, the results for `Cn1cc2cc(C3(NC(=O)c4ccccc4CNC(=O)C(=O)NCC#Cc4ccc(C#N)cc4OC(F)(F)F)CC3)ccc2n1` [Example 214] are < 100 nM and < 1000 nM.
Turning to `COc1cc(C2(NC(=O)c3ccccc3CNC(=O)C(=O)NCC#Cc3ccc(C#N)cc3OC(F)(F)F)CC2)cc2cn(C3CC3)nc12` [Example 215], the IC50 in assay [1] is < 100 nM. Besides, the EC50 in the assay with SARS-CoV-2 replicon was < 1000 nM.
For `COc1cc(C2(NC(=O)c3ccccc3CNC(=O)C(=O)N[C@@H](C)C#Cc3ccc(C#N)cc3OC(F)(F)F)CC2)cc2cn(C3CC3)nc12` [Example 216] the same measures were < 100 nM and < 1000 nM.
On to `N#CCNC(=O)C(=O)NCc1ccccc1C(=O)NC1(c2ccc(F)c(Br)c2)CC1` [Example 217], for which, in assay [1], the IC50 lay within 100 to 1000 nM. For the same molecule, the EC50 in the assay on SARS-CoV-2 replicon was > 10000 nM.
Consider `N#CCNC(=O)C(=O)NCc1ccccc1C(=O)NC1(c2cc(F)cc(Br)c2)CC1` [Example 218], for which, in assay [1], the IC50 fell in the range of 100 to 1000 nM. Also, the EC50 in the assay on SARS-CoV-2 replicon is > 10000 nM.
For `N#CCNC(=O)C(=O)NCc1ccccc1C(=O)NC1(c2ccc(F)c(-c3cccs3)c2)CC1` [Example 219] the same measures were < 100 nM and 1000 to 10000 nM.
For `N#CCNC(=O)C(=O)NCc1ccccc1C(=O)NC1(c2cc(F)cc(-c3cccs3)c2)CC1` [Example 220] the same measures were < 100 nM and 1000 to 10000 nM.
For `N#CCNC(=O)C(=O)NCc1ccccc1C(=O)NC1(c2ccc(F)c(-c3cnn(C4CC4)c3)c2)CC1` [Example 221] the same measures were < 100 nM and 1000 to 10000 nM.
As to `N#CCNC(=O)C(=O)NCc1ccccc1C(=O)NC1(c2cc(F)cc(-c3cnn(C4CC4)c3)c2)CC1` [Example 222], the IC50 in assay [1] is < 100 nM. In the assay on SARS-CoV-2 replicon, the EC50 was > 10000 nM.
On the same counts, the results for `C#CCNC(=O)C(=O)NCc1ccccc1C(=O)NC1(c2ccc(F)c(-c3cccs3)c2)CC1` [Example 223] are < 100 nM and < 1000 nM.
For `C#CCNC(=O)C(=O)NCc1ccccc1C(=O)NC1(c2cc(F)cc(-c3cccs3)c2)CC1` [Example 224] the same measures were < 100 nM and < 1000 nM.
On the same counts, the results for `C#CCNC(=O)C(=O)NCc1ccccc1C(=O)NC1(c2ccc(F)c(-c3cnn(C4CC4)c3)c2)CC1` [Example 225] are < 100 nM and < 1000 nM.
Take `C#CCNC(=O)C(=O)NCc1ccccc1C(=O)NC1(c2cc(F)cc(-c3cnn(C4CC4)c3)c2)CC1` [Example 226]: the IC50 in assay [1] was < 100 nM. For the same molecule, the EC50 in the assay with SARS-CoV-2 replicon is < 1000 nM.
On the same counts, the results for `C#CCNC(=O)C(=O)NCc1ccccc1C(=O)NC1(c2ccc(F)c(Br)c2)CC1` [Example 227] are < 100 nM and < 1000 nM.
On to `C#CCNC(=O)C(=O)NCc1ccccc1C(=O)NC1(c2cc(F)cc(Br)c2)CC1` [Example 228], for which the IC50 in assay [1] is < 100 nM. Moreover, in the assay on SARS-CoV-2 replicon, the EC50 is < 1000 nM.
Turning to `COc1ccc(C2(NC(=O)c3ccccc3CNC(=O)C(=O)NCC#N)CC2)cc1Br` [Example 229], the 50% inhibitory concentration (IC50) in assay [1] is < 100 nM. In addition, in the assay on SARS-CoV-2 replicon, the concentration for a half-maximal effect (EC50) was 1000 to 10000 nM.
On the same counts, the results for `C#CCNC(=O)C(=O)NCc1ccccc1C(=O)NC1(c2ccc(OC)c(Br)c2)CC1` [Example 230] are < 100 nM and < 1000 nM.
As to `Cn1cc(-c2cc(C3(NC(=O)c4ccccc4CNC(=O)C(=O)NCC#N)CC3)ccc2F)cn1` [Example 231], in assay [1], the IC50 is < 100 nM. The EC50 with SARS-CoV-2 replicon is > 10000 nM.
For the molecule `C#CCNC(=O)C(=O)NCc1ccccc1C(=O)NC1(c2ccc(F)c(-c3cnn(C)c3)c2)CC1` [Example 232], the IC50 in assay [1] was < 100 nM. Besides, the EC50 in the assay with SARS-CoV-2 replicon is < 1000 nM.
For `Cc1nn(C)cc1-c1cc(F)cc(C2(NC(=O)c3ccccc3CNC(=O)C(=O)NCC#N)CC2)c1` [Example 233] the same measures were < 100 nM and > 10000 nM.
For `C#CCNC(=O)C(=O)NCc1ccccc1C(=O)NC1(c2cc(F)cc(-c3cn(C)nc3C)c2)CC1` [Example 234] the same measures were < 100 nM and < 1000 nM.
For `Cn1cc(-c2cc(F)cc(C3(NC(=O)c4ccccc4CNC(=O)C(=O)NCC#N)CC3)c2)cn1` [Example 235] the same measures were < 100 nM and > 10000 nM.
`Cc1nn(C)cc1-c1cc(C2(NC(=O)c3ccccc3CNC(=O)C(=O)NCC#N)CC2)ccc1F` [Example 236]: the IC50 in assay [1] lay in the range of 100 to 1000 nM. Also, in the assay on SARS-CoV-2 replicon, the EC50 was > 10000 nM.
On the same counts, the results for `C#CCNC(=O)C(=O)NCc1ccccc1C(=O)NC1(c2ccc(F)c(-c3cn(C)nc3C)c2)CC1` [Example 237] are < 100 nM and < 1000 nM.
With `C#CCNC(=O)C(=O)NCc1ccccc1C(=O)NC1(c2cc(F)cc(-c3cnn(C)c3)c2)CC1` [Example 238], the IC50 in assay [1] is < 100 nM. Besides, the EC50 in the assay on SARS-CoV-2 replicon is < 1000 nM.
For `N#CCNC(=O)C(=O)NCc1ccccc1C(=O)NC1(c2cc(F)c(F)c(-c3cccs3)c2)CC1` [Example 239] the same measures were < 100 nM and > 10000 nM.
For `N#CCNC(=O)C(=O)NCc1ccccc1C(=O)NC1(c2cc(F)c(F)c(-c3cnn(C4CC4)c3)c2)CC1` [Example 240], the IC50 in assay [1] is < 100 nM. Besides, the EC50 in the assay with SARS-CoV-2 replicon was > 10000 nM.
For `C#CCNC(=O)C(=O)NCc1ccccc1C(=O)NC1(c2cc(F)c(F)c(-c3cccs3)c2)CC1` [Example 241] the same measures were < 100 nM and 1000 to 10000 nM.
Regarding `C#CCNC(=O)C(=O)NCc1ccccc1C(=O)NC1(c2cc(F)c(F)c(-c3cnn(C4CC4)c3)c2)CC1` [Example 242], the IC50 in assay [1] was < 100 nM. Also, in the assay on SARS-CoV-2 replicon, the EC50 is < 1000 nM.
For `O=C(NCC#Cc1nccs1)C(=O)NCc1ccccc1C(=O)NC1(c2cc(F)cc(-c3cnn(C4CC4)c3)c2)CC1` [Example 243] the same measures were < 100 nM and < 1000 nM.
Consider `C#CCNC(=O)C(=O)NCc1ccccc1C(=O)NC1(c2cc(OC)cc(-c3cnn(C4CC4)c3)c2)CC1` [Example 244], for which the IC50 in assay [1] was < 100 nM. In addition, in the assay on SARS-CoV-2 replicon, the EC50 is < 1000 nM.
As to `C#CCNC(=O)C(=O)NCc1ccccc1C(=O)NC1(c2ccc(OC)c(-c3cnn(C4CC4)c3)c2)CC1` [Example 245], in assay [1], the IC50 was < 100 nM. In the assay with SARS-CoV-2 replicon, the EC50 was < 1000 nM.
